Common to all, as to experiment: cells
One assay concerns NCI-H460. The conditions noted are these: Homo sapiens, NCI-H460, 48 h.
For another assay, the system named is Jurkat. The conditions noted are these: Homo sapiens, 48 h.
Another assay concerns HeLa. The conditions noted are these: Homo sapiens, 48 h.
For assay [1], the system named is HCT-116. The following applies: Homo sapiens, HCT-116, 48 h.
Description: Antiproliferative activity against human HCT-116 p53-/- cells assessed as reduction in cell viability incubated for 48 hrs by sulphorhodamine B assay
In assay [2] the test system is HCT-116. The conditions noted are these: Homo sapiens, HCT-116, 48 h. The source holds these as a separate data set.
Description: Antiproliferative activity against human HCT-116 cells assessed as reduction in cell viability incubated for 48 hrs by sulphorhodamine B assay
The next assay concerns SiHa. The following applies: Homo sapiens, 48 h.
Another assay concerns MDA-MB-231. The conditions noted are these: Homo sapiens, MDA-MB-231, 48 h.
A further assay relates to MCF7. The conditions noted are these: Homo sapiens, MCF7, 48 h.
The next assay deals with U-251. The following applies: Homo sapiens, U-251, 48 h.

The structures appear in SMILES notation.

Description for HeLa: Antiproliferative activity against human HeLa cells assessed as reduction in cell viability incubated for 48 hrs by sulphorhodamine B assay
Description for Jurkat: Antiproliferative activity against human Jurkat cells assessed as reduction in cell viability incubated for 48 hrs by sulphorhodamine B assay
Description for MCF7: Antiproliferative activity against human MCF7 cells assessed as reduction in cell viability incubated for 48 hrs by sulphorhodamine B assay
Description for MDA-MB-231: Antiproliferative activity against human MDA-MB-231 cells assessed as reduction in cell viability incubated for 48 hrs by sulphorhodamine B assay
Description for NCI-H460: Antiproliferative activity against human NCI-H460 cells assessed as reduction in cell viability incubated for 48 hrs by sulphorhodamine B assay
Description for SiHa: Antiproliferative activity against human SiHa cells assessed as reduction in cell viability incubated for 48 hrs by sulphorhodamine B assay
Description for U-251: Antiproliferative activity against human U-251 cells assessed as reduction in cell viability incubated for 48 hrs by sulphorhodamine B assay

In the case of `O=C1c2cnc3c(Cl)cc(Cl)cc3c2C(=O)c2[nH]c3ccccc3c21`, the concentration for 50% growth inhibition (GI50) – broadly, the concentration at which growth is held to half of that of the control – in the assay on NCI-H460 amounted to 730 nM; in the assay on Jurkat, 2.6 µM; in the assay on HeLa, 500 nM; in the assay on HCT-116 [1], 2000 nM; in the assay on HCT-116 [2] it was 1200 nM; with SiHa it was 1800 nM. Moreover, the 50% growth inhibitory concentration (GI50) was 200 nM in the assay with MDA-MB-231, 500 nM in the assay on MCF7 and 1500 nM in the assay on U-251.

Take `COc1cc2ncc3c(c2cc1OC)C(=O)c1[nH]c2ccccc2c1C3=O`: the GI50 was over 4000 nM with NCI-H460; over 4 µM in the assay on Jurkat; over 4000 nM in the assay with HeLa; over 4000 nM in the assay with HCT-116 [1]; over 4000 nM in the assay with HCT-116 [2]; over 4000 nM in the assay with SiHa. Also, the results for the GI50 in the assay on MDA-MB-231, with MCF7 and in the assay with U-251 were over 4000 nM, 360 nM and over 4000 nM, respectively.

Turning to `Nc1nc2cc(F)ccc2c2cc3[nH]c4ccccc4c3cc12`, the GI50 in the assay with NCI-H460 amounted to 140 nM; with HeLa, 10 nM; in the assay with HCT-116 [2], 1200 nM; in the assay with SiHa, 1350 nM; in the assay with MDA-MB-231 it was 1250 nM; with MCF7 it was 130 nM. Besides, the GI50 with U-251 was 1200 nM.

Take `O=C1c2[nH]c3ccccc3c2C(=O)c2cnc3cc(F)c(Cl)cc3c21`: the GI50 is over 4000 nM in the assay with NCI-H460; over 4 µM with Jurkat; 2000 nM with HeLa; over 4000 nM with HCT-116 [1]; over 4000 nM in the assay with HCT-116 [2]; over 4000 nM with SiHa. Further, the figures for the GI50 with MDA-MB-231, with MCF7 and in the assay on U-251 were over 4000 nM, 1350 nM and over 4000 nM, respectively.

As to `O=C1c2[nH]c3ccccc3c2C(=O)c2cnc3ccc(Br)cc3c21`, the 50% growth inhibitory concentration (GI50) with NCI-H460 is 1100 nM; in the assay on Jurkat, 1.5 µM; with HeLa, 290 nM; with HCT-116 [1] it was 1130 nM; in the assay with HCT-116 [2], 700 nM; with SiHa, 1400 nM. The GI50 in the assay with MDA-MB-231 was determined as 270 nM; with MCF7 it was 220 nM; in the assay on U-251, 600 nM.

As to `O=C1c2cnc3cccc(Cl)c3c2C(=O)c2[nH]c3ccccc3c21`, the GI50 in the assay on NCI-H460 is over 4000 nM; in the assay on Jurkat, over 4 µM; in the assay on HeLa it was over 4000 nM; in the assay with HCT-116 [1], over 4000 nM; with HCT-116 [2], 3500 nM; in the assay on SiHa, over 4000 nM. Further, the GI50 is over 4000 nM with MDA-MB-231, 800 nM with MCF7 and over 4000 nM with U-251.

As for `CC[C@@]1(O)C(=O)OCc2c1cc1n(c2=O)Cc2cc3ccccc3nc2-1` [CAMPTOTHECIN], the concentration for 50% growth inhibition (GI50) in the assay on NCI-H460 was 5.7 nM; with Jurkat, 0.06 µM; with HeLa it was 190 nM; in the assay on HCT-116 [1] it was 195 nM; with HCT-116 [2], 50 nM; in the assay on SiHa, 550 nM. Moreover, the values for the GI50 in the assay on MDA-MB-231, in the assay with MCF7 and in the assay with U-251 were 400 nM, 60 nM and 10 nM, respectively.

As for `O=C1c2[nH]c3ccccc3c2C(=O)c2cnc3cc(Cl)c(Cl)cc3c21`, the GI50 with NCI-H460 was over 4000 nM; in the assay with Jurkat it was over 4 µM; with HeLa, 1800 nM; with HCT-116 [1] it was over 4000 nM; with HCT-116 [2], over 4000 nM; in the assay with SiHa, over 4000 nM. The GI50 was 1800 nM with MDA-MB-231, over 4000 nM in the assay on MCF7 and over 4000 nM in the assay on U-251.

On to `O=C1c2[nH]c3ccccc3c2C(=O)c2cnc3ccc(Cl)cc3c21`, for which the concentration for 50% growth inhibition (GI50) in the assay on NCI-H460 came to 700 nM; with Jurkat, 1.4 µM; with HeLa it was 500 nM; in the assay on HCT-116 [1], 1500 nM; in the assay with HCT-116 [2] it was 420 nM; in the assay with SiHa it was 1670 nM. In addition, the results for the 50% growth inhibitory concentration (GI50) in the assay on MDA-MB-231, in the assay on MCF7 and in the assay with U-251 were 170 nM, 350 nM and 500 nM, respectively.

For `O=C1c2[nH]c3ccccc3c2C(=O)c2cnc3cc(Br)ccc3c21`, the GI50 is 1270 nM in the assay on NCI-H460; 1.5 µM in the assay with Jurkat; 210 nM in the assay on HeLa; 2600 nM with HCT-116 [1]; 1500 nM with HCT-116 [2]; over 4000 nM in the assay on SiHa. Besides, the GI50 with MDA-MB-231 was determined as 1000 nM; with MCF7 it was 600 nM; with U-251, 2000 nM.

As to `Nc1nc2ccccc2c2cc3[nH]c4ccccc4c3cc12`, the GI50 was found to be 1000 nM with NCI-H460; 800 nM in the assay with HeLa; 1000 nM in the assay on HCT-116 [2]; 1050 nM with SiHa; 1000 nM in the assay with MDA-MB-231; 1000 nM with MCF7. Also, the GI50 with U-251 was 1050 nM.

Consider `COc1ccc2ncc3c(c2c1)C(=O)c1[nH]c2ccccc2c1C3=O`, for which the GI50 was over 4000 nM with NCI-H460; over 4 µM with Jurkat; over 4000 nM in the assay on HeLa; over 4000 nM in the assay with HCT-116 [1]; 630 nM in the assay on HCT-116 [2]; over 4000 nM in the assay on SiHa. Further, the GI50 in the assay on MDA-MB-231, with MCF7 and in the assay with U-251 was over 4000 nM in each case.

Turning to `O=C1c2[nH]c3ccccc3c2C(=O)c2cnc3cc(Cl)ccc3c21`, the 50% growth inhibitory concentration (GI50) in the assay on NCI-H460 turned out to be 1400 nM; with Jurkat, 3.55 µM; in the assay on HeLa, 70 nM; with HCT-116 [1] it was 2600 nM; in the assay with HCT-116 [2] it was 1500 nM; with SiHa it was 1600 nM. In addition, the 50% growth inhibitory concentration (GI50) in the assay on MDA-MB-231 is 360 nM; in the assay with MCF7, 530 nM; in the assay with U-251, 2830 nM.

`O=C1c2[nH]c3ccccc3c2C(=O)c2cnc3cc4c(cc3c21)OCO4`: the concentration for 50% growth inhibition (GI50) in the assay on NCI-H460 was over 4000 nM; in the assay with Jurkat, over 4 µM; in the assay on HeLa, over 4000 nM; with HCT-116 [1], over 4000 nM; in the assay with HCT-116 [2], over 4000 nM; in the assay with SiHa, over 4000 nM. In addition, the 50% growth inhibitory concentration (GI50) in the assay on MDA-MB-231 was over 4000 nM; in the assay on MCF7 it was 110 nM; in the assay with U-251, over 4000 nM.

Turning to `O=C1c2cnc3c(Cl)cccc3c2C(=O)c2[nH]c3ccccc3c21`, the GI50 was over 4000 nM in the assay on NCI-H460; over 4 µM with Jurkat; over 4000 nM with HeLa; over 4000 nM in the assay with HCT-116 [1]; over 4000 nM in the assay with HCT-116 [2]; over 4000 nM in the assay on SiHa. Moreover, the GI50 in the assay with MDA-MB-231, in the assay on MCF7 and in the assay with U-251 was over 4000 nM throughout.

In the case of `Nc1nc2ccccc2c2cc3c(cc12)[nH]c1ccccc13`, the GI50 turned out to be 1050 nM with NCI-H460; 1400 nM in the assay on HeLa; 1050 nM in the assay with HCT-116 [2]; 1300 nM with SiHa; 1100 nM in the assay on MDA-MB-231; 1000 nM in the assay with MCF7. The compound further returned a GI50 in the assay with U-251 of 650 nM.

In the case of `O=C1c2[nH]c3ccccc3c2C(=O)c2cnc3cc(F)c(Br)cc3c21`, the GI50 is 2250 nM in the assay with NCI-H460; over 4 µM in the assay on Jurkat; 270 nM in the assay on HeLa; over 4000 nM in the assay with HCT-116 [1]; over 4000 nM in the assay with HCT-116 [2]; over 4000 nM in the assay with SiHa. Further, the concentration for 50% growth inhibition (GI50) in the assay on MDA-MB-231 is 400 nM; in the assay with MCF7, 660 nM; in the assay with U-251, over 4000 nM.

Consider `COc1cccc2c3c(cnc12)C(=O)c1c([nH]c2ccccc12)C3=O`, for which the GI50 in the assay with NCI-H460 is over 4000 nM; with Jurkat, over 4 µM; in the assay on HeLa it was 390 nM; with HCT-116 [1], over 4000 nM; in the assay on HCT-116 [2], 330 nM; in the assay with SiHa it was over 4000 nM. Further, the concentration for 50% growth inhibition (GI50) turned out to be 310 nM in the assay on MDA-MB-231, 600 nM with MCF7 and 1830 nM in the assay on U-251.
